Assay results published in ChEMBL document CHEMBL3046947, “Synthesis and antimicrobial activity studies of some novel substituted phenylhydrazono-1H-tetrazol-5-yl-acetonitriles” (2010).
The source made the active and inactive calls. The rule behind the calls is not given here.

What was measured:
Staphylococcus aureus = assay: Antibacterial activity against Staphylococcus aureus TP32 clinical isolate at 1 mg/ml after 24 hr by agar well diffusion method; assay type: functional; conditions: for zone of inhibition at 1000 µg/mL: TP32, 24 h, read-out: IZ
Bacillus cereus [1] = assay: Antibacterial activity against Bacillus cereus RSKK 863 at 1 mg/ml after 24 hr by agar well diffusion method; assay type: functional; conditions: for zone of inhibition at 1000 µg/mL: RSKK 863, 24 h, read-out: IZ
Pseudomonas aeruginosa [2] = assay: Antibacterial activity against Pseudomonas aeruginosa […] at 1 mg/ml after 24 hr by agar well diffusion method; assay type: functional; conditions: for zone of inhibition at 1000 µg/mL: read-out: IZ
Escherichia coli [3] = assay: Antibacterial activity against Escherichia coli ATCC 35218 at 1 mg/ml after 24 hr by agar well diffusion method; assay type: functional; conditions: for zone of inhibition at 1000 µg/mL: ATCC 35218, 24 h, read-out: IZ
Escherichia coli [4] = assay: Antibacterial activity against Escherichia coli ATCC 35218 at 30 ug/disk after 24 hr by agar well diffusion method; assay type: functional, organism-based
Pseudomonas aeruginosa [5] = assay: Antibacterial activity against Pseudomonas aeruginosa […] at 30 ug/disk after 24 hr by agar well diffusion method; assay type: functional
Bacillus cereus [6] = assay: Antibacterial activity against Bacillus cereus RSKK 863 at 30 ug/disk after 24 hr by agar well diffusion method; assay type: functional; conditions: for zone of inhibition at 30 µg/disc: RSKK 863, 24 h, read-out: IZ
Bacillus cereus [7] = assay: Antibacterial activity against Bacillus cereus RSKK 863 at 10 ug/disk after 24 hr by agar well diffusion method; assay type: functional; conditions: RSKK 863, 24 h, read-out: IZ
Pseudomonas aeruginosa [8] = assay: Antibacterial activity against Pseudomonas aeruginosa […] at 10 ug/disk after 24 hr by agar well diffusion method; assay type: functional, organism-based
Escherichia coli [9] = assay: Antibacterial activity against Escherichia coli ATCC 35218 at 10 ug/disk after 24 hr by agar well diffusion method; assay type: functional; conditions: ATCC 35218, 24 h, read-out: IZ
Escherichia coli [10] = assay: Antibacterial activity against Escherichia coli ATCC 35218 at 15 ug/disk after 24 hr by agar well diffusion method; assay type: functional; conditions: ATCC 35218, 24 h, read-out: IZ
Bacillus cereus [11] = assay: Antibacterial activity against Bacillus cereus RSKK 863 at 15 ug/disk after 24 hr by agar well diffusion method; assay type: functional; conditions: RSKK 863, 24 h, read-out: IZ
Pseudomonas aeruginosa [12] = assay: Antibacterial activity against Pseudomonas aeruginosa […] at 15 ug/disk after 24 hr by agar well diffusion method; assay type: functional, organism-based
Bacillus cereus [13] = assay: Antibacterial activity against Bacillus cereus RSKK 863 at 10 units/disk after 24 hr by agar well diffusion method; assay type: functional, organism-based
Escherichia coli [14] = assay: Antibacterial activity against Escherichia coli ATCC 35218 at 10 units/disk after 24 hr by agar well diffusion method; assay type: functional
Pseudomonas aeruginosa [15] = assay: Antibacterial activity against Pseudomonas aeruginosa […] at 10 units/disk after 24 hr by agar well diffusion method; assay type: functional, organism-based

| Structure (SMILES) | zone of inhibition at 1000 µg/mL (Staphylococcus aureus) [mm] | zone of inhibition at 1000 µg/mL (Bacillus cereus [1]) [mm] | zone of inhibition at 1000 µg/mL (Pseudomonas aeruginosa [2]) [mm] | zone of inhibition at 1000 µg/mL (Escherichia coli [3]) [mm] | also measured |
| --- | --- | --- | --- | --- | --- |
| N#C/C(=N\Nc1ccccc1Cl)c1nnn[nH]1 | 7 | 5 | 10 |  | inhibition zone (IZ) (Escherichia coli [3]): inactive |
| Cc1ccccc1N/N=C(\C#N)c1nnn[nH]1 | 4 | 20 | 5 | 10 |  |
| Cc1ccc(N/N=C(\C#N)c2nnn[nH]2)cc1 | 8 | 20 | 8 | 10 |  |
| N#C/C(=N\Nc1ccc(F)cc1)c1nnn[nH]1 | 10 | 19 | 8 | 11 |  |
| OC(Cn1cncn1)(Cn1cncn1)c1ccc(F)cc1F |  |  |  |  | inhibition zone (IZ) (Escherichia coli [4]): inactive; inhibition zone (IZ) (Pseudomonas aeruginosa [5]): inactive; inhibition zone (IZ) (Bacillus cereus [6]): inactive |
| N#C/C(=N\Nc1ccc([N+](=O)[O-])cc1)c1nnn[nH]1 | 3 | 11 | 5 | 10 |  |
| CC1(C)S[C@@H]2[C@H](NC(=O)[C@H](N)c3ccccc3)C(=O)N2[C@H]1C(=O)O [AMPICILLIN] |  |  |  |  | zone of inhibition at 10 µg/disc (Bacillus cereus [7]): 20 mm; inhibition zone (IZ) (Pseudomonas aeruginosa [8]): inactive; zone of inhibition at 10 µg/disc (Escherichia coli [9]): 9 mm |
| N#C/C(=N\Nc1ccccc1[N+](=O)[O-])c1nnn[nH]1 | 4 | 10 | 4 | 7 |  |
| COc1ccc(N/N=C(\C#N)c2nnn[nH]2)cc1 |  | 7 |  | 10 | inhibition zone (IZ) (Staphylococcus aureus): inactive; inhibition zone (IZ) (Pseudomonas aeruginosa [2]): inactive |
| N#C/C(=N\Nc1ccc(I)cc1)c1nnn[nH]1 | 8 | 10 | 9 | 7 |  |
| N#C/C(=N\Nc1ccccc1F)c1nnn[nH]1 | 5 | 19 | 4 | 14 |  |
| N#C/C(=N\Nc1ccccc1)c1nnn[nH]1 | 8 | 15 | 9 | 7 |  |
| N#C/C(=N\Nc1ccc(Cl)cc1)c1nnn[nH]1 | 6 | 21 | 8 | 10 |  |
| N#C/C(=N\Nc1ccccc1I)c1nnn[nH]1 | 3 | 17 | 5 | 7 |  |
| N#C/C(=N\Nc1ccc(Br)cc1)c1nnn[nH]1 | 6 | 20 | 8 | 14 |  |
| COc1ccccc1N/N=C(\C#N)c1nnn[nH]1 |  |  |  |  | inhibition zone (IZ) (Staphylococcus aureus): inactive; inhibition zone (IZ) (Bacillus cereus [1]): inactive; inhibition zone (IZ) (Pseudomonas aeruginosa [2]): inactive; inhibition zone (IZ) (Escherichia coli [3]): inactive |
| CC[C@H]1OC(=O)[C@H](C)[C@@H](O[C@H]2C[C@@](C)(OC)[C@@H](O)[C@H](C)O2)[C@H](C)[C@@H](O[C@@H]2O[C@H](C)C[C@H](N(C)C)[C@H]2O)[C@](C)(O)C[C@@H](C)C(=O)[C@H](C)[C@@H](O)[C@]1(C)O [ERYTHROMYCIN] |  |  |  |  | zone of inhibition at 15 µg/disc (Escherichia coli [10]): 11 mm; zone of inhibition at 15 µg/disc (Bacillus cereus [11]): 19 mm; inhibition zone (IZ) (Pseudomonas aeruginosa [12]): inactive |
| CN(C)[C@@H]1C(O)=C(C(N)=O)C(=O)[C@@]2(O)C(O)=C3C(=O)c4c(O)cccc4[C@@](C)(O)[C@H]3C[C@@H]12 [TETRACYCLINE] |  |  |  |  | inhibition zone (IZ) (Escherichia coli [4]): inactive; zone of inhibition at 30 µg/disc (Pseudomonas aeruginosa [5]; read-out: IZ): 16 mm; zone of inhibition at 30 µg/disc (Bacillus cereus [6]): 17 mm |
| CN[C@H](CC(C)C)C(=O)N[C@H]1C(=O)N[C@@H](CC(N)=O)C(=O)N[C@H]2C(=O)N[C@H]3C(=O)N[C@H](C(=O)N[C@H](C(=O)O)c4cc(O)cc(O)c4-c4cc3ccc4O)[C@H](O)c3ccc(c(Cl)c3)Oc3cc2cc(c3O[C@@H]2O[C@H](CO)[C@@H](O)[C@H](O)[C@H]2O[C@H]2C[C@](C)(N)[C@H](O)[C@H](C)O2)Oc2ccc(cc2Cl)[C@H]1O [VANCOMYCIN] |  |  |  |  | inhibition zone (IZ) (Escherichia coli [4]): inactive; inhibition zone (IZ) (Pseudomonas aeruginosa [5]): inactive; zone of inhibition at 30 µg/disc (Bacillus cereus [6]): 17 mm |
| CC1(C)S[C@@H]2[C@H](NC(=O)Cc3ccccc3)C(=O)N2[C@H]1C(=O)O [PENICILLIN G] |  |  |  |  | inhibition zone (IZ) (Bacillus cereus [13]): inactive; inhibition zone (IZ) (Escherichia coli [14]): 17 mm; inhibition zone (IZ) (Pseudomonas aeruginosa [15]): inactive |
| N#C/C(=N\Nc1ccccc1Br)c1nnn[nH]1 |  | 12 | 3 | 7 | inhibition zone (IZ) (Staphylococcus aureus): inactive |
